Results taken from the NIST ThermoML archive (doi:10.1021/je049867t).
± gives the expanded uncertainty stated by the source.

Tests used:
[1] = Liquid
[2] = refractive index (Na D-line) (dimensionless); conditions: 293.15 K; 101.33 kPa; Liquid; Standard Abbe refractometry
[3] = 308.15 K, Ebulliometric method (Recirculating still)
[4] = 318.15 K, Ebulliometric method (Recirculating still)
[5] = 323.15 K, Ebulliometric method (Recirculating still)

| vapor or sublimation pressure ([1]; 298.02 K) | vapor or sublimation pressure ([1]; 306.98 K) | vapor or sublimation pressure ([1]; 318.15 K) | vapor or sublimation pressure ([1]; 319.2 K) | vapor or sublimation pressure ([1]; 327.9 K) | vapor or sublimation pressure ([1]; 334.78 K) | vapor or sublimation pressure ([1]; 340.52 K) | vapor or sublimation pressure ([1]; 345.48 K) | vapor or sublimation pressure ([1]; 349.85 K) | vapor or sublimation pressure ([1]; 353.81 K) | vapor or sublimation pressure ([1]; 355.64 K) | refractive index [2] | SMILES | vapor or sublimation pressure [1, 3] | vapor or sublimation pressure [1, 4] | vapor or sublimation pressure [1, 5] |
| --- | --- | --- | --- | --- | --- | --- | --- | --- | --- | --- | --- | --- | --- | --- | --- |
| 10 ± 0.09 kPa | 15 ± 0.1 kPa | 23.99 ± 0.19 kPa | 25 ± 0.13 kPa | 35 ± 0.15 kPa | 45 ± 0.18 kPa | 55 ± 0.21 kPa | 65 ± 0.24 kPa | 75 ± 0.27 kPa | 85 ± 0.3 kPa | 90 ± 0.32 kPa | 1.3862 ± 0.0009 | CCC(C)(C)OC [2-methoxy-2-methylbutane] |  |  |  |
|  |  |  |  |  |  |  |  |  |  |  | 1.3698 ± 0.0007 | COC(C)(C)C [2-methoxy-2-methylpropane] | 49.48 ± 0.15 kPa | 71.41 ± 0.17 kPa | 84.91 ± 0.18 kPa |

| SMILES | vapor or sublimation pressure ([1]; 298.02 K) | vapor or sublimation pressure ([1]; 306.98 K) | vapor or sublimation pressure ([1]; 318.15 K) | vapor or sublimation pressure ([1]; 319.2 K) | vapor or sublimation pressure ([1]; 327.9 K) | vapor or sublimation pressure ([1]; 334.78 K) | vapor or sublimation pressure ([1]; 340.52 K) | vapor or sublimation pressure ([1]; 345.48 K) | vapor or sublimation pressure ([1]; 349.85 K) | vapor or sublimation pressure ([1]; 353.81 K) | vapor or sublimation pressure ([1]; 355.64 K) | refractive index [2] | vapor or sublimation pressure [1, 3] | vapor or sublimation pressure [1, 4] | vapor or sublimation pressure [1, 5] |
| --- | --- | --- | --- | --- | --- | --- | --- | --- | --- | --- | --- | --- | --- | --- | --- |
| Cc1ccccc1 [toluene] |  |  |  |  |  |  |  |  |  |  |  | 1.4965 ± 0.0007 | 6.18 ± 0.1 kPa | 9.88 ± 0.1 kPa | 12.28 ± 0.1 kPa |
